Measured values from patent US20240059691A1 (KALVISTA PHARMACEUTICALS LIMITED, priority 2020, published 2024).

How the values were obtained:
[1] = biological target: Human Factor XIIa (Homo sapiens (Human), UniProt P00748); assay: Determination of FXIIa inhibition (fluorogenic substrate H-DPro-Phe-Arg-AFC, IC50 assay); assay type: biochemical; conditions: substrate H-DPro-Phe-Arg-AFC at Km, 25° C.; class scale A-G
In short: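 IC50 derived from % remaining activity, taken as the linear fluorescence rate over a 5 min read at 25° C. Substrate H-DPro-Phe-Arg-AFC was used at its Km (Michaelis-Menten) with human FXIIa and serial compound dilutions, 25° C.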

[2] = biological target: Plasma Kallikrein (Homo sapiens (Human), UniProt P03952); assay: Determination of related protease inhibition: Plasma Kallikrein (fluorogenic substrate at Km); assay type: biochemical; conditions: 25° C., read-out: IC50 (human PKal)
In short: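 IC50 values derive from the linear rate of fluorescence increase, normalised to uninhibited enzyme as 100% activity. Each human protease was run against its fluorogenic substrate at Km concentration with varying compound levels, with product fluorescence followed over 5 min at 25 °C.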

Chain of Human Factor XIIa (P00748 373-615): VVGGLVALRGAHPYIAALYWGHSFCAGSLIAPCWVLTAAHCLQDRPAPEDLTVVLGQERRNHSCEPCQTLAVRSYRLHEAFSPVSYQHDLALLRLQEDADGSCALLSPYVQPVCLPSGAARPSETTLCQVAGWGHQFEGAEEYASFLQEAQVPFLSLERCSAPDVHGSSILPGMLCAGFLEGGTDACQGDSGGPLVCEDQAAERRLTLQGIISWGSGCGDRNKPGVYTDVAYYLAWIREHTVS
Chain of Plasma Kallikrein (P03952 391-638): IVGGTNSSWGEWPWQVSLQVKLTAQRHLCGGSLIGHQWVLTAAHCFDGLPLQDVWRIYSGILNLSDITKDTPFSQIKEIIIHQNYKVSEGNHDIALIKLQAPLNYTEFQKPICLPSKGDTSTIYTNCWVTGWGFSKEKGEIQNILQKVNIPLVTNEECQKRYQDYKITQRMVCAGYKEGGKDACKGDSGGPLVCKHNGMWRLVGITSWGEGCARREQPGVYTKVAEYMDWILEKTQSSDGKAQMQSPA
Chain of Plasma Kallikrein (P03952 20-390 partner): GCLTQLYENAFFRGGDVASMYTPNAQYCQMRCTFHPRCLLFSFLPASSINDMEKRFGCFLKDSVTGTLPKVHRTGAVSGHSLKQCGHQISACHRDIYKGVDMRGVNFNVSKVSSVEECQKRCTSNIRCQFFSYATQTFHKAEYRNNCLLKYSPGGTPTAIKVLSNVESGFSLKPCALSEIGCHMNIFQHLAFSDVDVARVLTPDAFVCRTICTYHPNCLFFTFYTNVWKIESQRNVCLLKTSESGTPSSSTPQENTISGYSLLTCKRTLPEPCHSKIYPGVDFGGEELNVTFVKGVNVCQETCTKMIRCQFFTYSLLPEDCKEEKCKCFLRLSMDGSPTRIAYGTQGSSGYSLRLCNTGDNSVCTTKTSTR

SMILES	IC50 [1] [µM]	IC50 [2] [µM]
Nc1ncc(Cl)c2cc(NCc3ccc(N4CC5(CC(O)c6nccn65)C4)nc3)ccc12 (centres unmarked) [Example 1270, 1-(5-(((1-amino-4-chloroisoquinolin-6-yl)amino)methyl)pyridin-2-yl)-6′,7′-dihydrospiro[azetidine-3,5′-pyrrolo[1,2-a]imidazol]-7′-ol]	10 to 40	> 40
CC(C)N1CCC(OCc2ccc(CNc3ccc4c(N)nccc4c3)c(F)c2)CC1 [Example 2216, 6-N-[(2-fluoro-4-{[(1-isopropylpiperidin-4-yl)oxy]methyl}phenyl)methyl]isoquinoline-1,6-diamine]	0.1 to 0.3	1 to 3
CC(C)(O)[C@H]1CCN(c2ccc(CNc3ccc4c(N)ncc(Cl)c4c3)cn2)C1 [Example 1176, 2-[(3S)-1-(5-{[(1-amino-4-chloroisoquinolin-6-yl)amino]methyl}pyridin-2-yl)pyrrolidin-3-yl]propan-2-ol]	3 to 10	> 40
Nc1ncc(Cl)c2cc(NCc3ccnc(OCC4CCCn5ccnc54)c3)ccc12 (centres unmarked) [Example 4443, 4-chloro-N6-((2-((5,6,7,8-tetrahydroimidazo[1,2-a]pyridin-8-yl)methoxy)pyridin-4-yl)methyl)isoquinoline-1,6-diamine]	0.1 to 0.3	> 40
Cc1cc2c(NCc3ccc(NCC4CCN(C)CC4)nc3)cncc2[nH]1 [Example 1232, 2-Methyl-N-((6-(((1-methylpiperidin-4-yl)methyl)amino)pyridin-3-yl)methyl)-1H-pyrrolo[2,3-c]pyridin-4-amine]	0.3 to 1	10 to 40
COc1cc(NCc2ccc(NCC3CCN(C)CC3)nc2)cc2ccncc12 [Example 1103, 8-methoxy-N-((6-(((1-methylpiperidin-4-yl)methyl)amino)pyridin-3-yl)methyl)isoquinolin-6-amine]	10 to 40	10 to 40
Cc1c[nH]c2nccc(NCc3ccc(NCC4CCN(C)CC4)nc3)c12 [Example 1226, 3-methyl-N-((6-(((1-methylpiperidin-4-yl)methyl)amino)pyridin-3-yl)methyl)-1H-pyrrolo[2,3-b]pyridin-4-amine]	3 to 10	> 100
Nc1ncc(Cl)c2cc(NCc3ccnc(OCc4ccn5ccnc5c4)c3)ccc12 [Example 4433, 4-chloro-6-N-[(2-{imidazo[1,2-a]pyridin-7-ylmethoxy}pyridin-4-yl)methyl]isoquinoline-1,6-diamine]	1 to 3	> 40
Nc1nccc2c(NCc3ccnc(OCC4CCn5ccnc5C4)c3)cccc12 (single isomer, unassigned) [Example 4430, (S*)-N5-((2-((5,6,7,8-tetrahydroimidazo[1,2-a]pyridin-7-yl)methoxy)pyridin-4-yl)methyl)isoquinoline-1,5-diamine]	0.01 to 0.1	> 4
CNC(=O)c1cc(NCc2ccnc(OCC3CCN(C)CC3)c2)cc2ccncc12 [Example 4463]	40 to 100	> 100
Nc1nccc2c(NCc3ccc(N4Cc5nccn5C(CO)C4)nc3)cccc12 (centres unmarked) [Example 1133, (7-(5-(((1-aminoisoquinolin-5-yl)amino)methyl)pyridin-2-yl)-5,6,7,8-tetrahydroimidazo[1,2-a]pyrazin-5-yl)methanol]	3 to 10	> 40
CN1CCC(CNc2ccc(CNc3cnc4nccnc4c3)cn2)CC1 [Example 1189, N-((6-(((1-methylpiperidin-4-yl)methyl)amino)pyridin-3-yl)methyl)pyrido[2,3-b]pyrazin-7-amine]	40 to 100	> 40
CN1CCC(CNc2ccc(CNc3nccc4[nH]ccc34)cn2)CC1 [Example 1223, N-((6-(((1-methylpiperidin-4-yl)methyl)amino)pyridin-3-yl)methyl)-1H-pyrrolo[3,2-c]pyridin-4-amine]	40 to 100	> 40
CN1CCC(COc2cc(CNc3ccc4ncc(=O)[nH]c4c3)ccn2)CC1 [Example 4456]	40 to 100	10 to 40
CC(C)N1CC2CCC(C1)C2COc1cc(CNc2cccc3c(N)nccc23)ccn1 (centres unmarked) [Example 4297, N5-((2-((3-isopropyl-3-azabicyclo[3.2.1]octan-8-yl)methoxy)pyridin-4-yl)methyl)isoquinoline-1,5-diamine]	0.1 to 0.3	> 4
CN1CCC(Oc2ccc(CNc3cnc4[nH]cc(Cl)c4c3)cc2)CC1 [Example 1004, 3-Chloro-N-(4-((1-methylpiperidin-4-yl)oxy)benzyl)-1H-pyrrolo[2,3-b]pyridin-5-amine]	10 to 40	> 40
CN1CCC(CNc2ccc(CNc3cc(CO)c4cnccc4c3)cn2)CC1 [Example 1211, (6-(((6-(((1-methylpiperidin-4-yl)methyl)amino)pyridin-3-yl)methyl)amino)isoquinolin-8-yl)methanol]	10 to 40	10 to 40

SMILES	IC50 [1] [µM]	IC50 [2] [µM]
Nc1ncc(Cl)c2cc(NCc3ccc(N4CCc5nccn5CC4)nc3)ccc12 [Example 1272, 4-chloro-N6-((6-(5,6,8,9-tetrahydro-7H-imidazo[1,2-d][1,4]diazepin-7-yl)pyridin-3-yl)methyl)isoquinoline-1,6-diamine]	1 to 3	10 to 40
CN1CCC(OCc2ccc(CNc3ccc4nc(N)ccc4c3)cc2)CC1 [Example 2187, N6-(4-(((1-methylpiperidin-4-yl)oxy)methyl)benzyl)quinoline-2,6-diamine]	3 to 10	10 to 40
Nc1ncc(Cl)c2cc(NCc3cccc(CC(=O)N4CCn5ccnc5C4)c3)ccc12 [Example 5442, 2-(3-(((1-amino-4-chloroisoquinolin-6-yl)amino)methyl)phenyl)-1-(5,6-dihydroimidazo[1,2-a]pyrazin-7(8H)-yl)ethan-1-one]	10 to 40	> 40
COc1cc(NCc2ccnc(OCC3CCN(C)CC3)c2)cc2ccncc12 [Example 4462, 8-methoxy-N-((2-((1-methylpiperidin-4-yl)methoxy)pyridin-4-yl)methyl)isoquinolin-6-amine]	3 to 10	> 100
CN1CCC(CNc2ccc(CNc3cc(C#N)cc4[nH]ccc34)cn2)CC1 [Example 1256]	10 to 40	> 40
FC(F)(F)c1nnc2n1CCN(c1ccc(CNc3ccnc4[nH]c(Cl)cc34)cn1)C2 [Example 1280, 2-chloro-N-((6-(3-(trifluoromethyl)-5,6-dihydro-[1,2,4]triazolo[4,3-a]pyrazin-7(8H)-yl)pyridin-3-yl)methyl)-1H-pyrrolo[2,3-b]pyridin-4-amine]	0.3 to 1	> 40
Nc1ncc(Cl)c2cc(NCc3cnc(NCC4CCn5ccnc5C4)nc3)ccc12 (centres unmarked) [Example 1043, 4-chloro-6-N-{[2-({5H,6H,7H,8H-imidazo[1,2-a]pyridin-7-ylmethyl}amino)pyrimidin-5-yl]methyl}isoquinoline-1,6-diamine]	0.3 to 1	3 to 10
Nc1nccc2c(NCc3ccnc(NCCC(=O)N4CCCC4)c3)cccc12 [Example 4302, 3-[(4-{[(1-aminoisoquinolin-5-yl)amino]methyl}pyridin-2-yl)amino]-1-(pyrrolidin-1-yl)propan-1-one]	1 to 3	10 to 40
Nc1nccc2c(NCc3ccc(OC4CCn5ccnc5C4)nc3)cccc12 (centres unmarked) [Example 1049, N5-[[6-(5,6,7,8-tetrahydroimidazo[1,2-a]pyridin-7-yloxy)-3-pyridyl]methyl]isoquinoline-1,5-diamine]	0.3 to 1	> 40
Cc1cc2c(NCc3ccc(N4CCn5c(nnc5C(F)F)C4)nc3)ccnc2[nH]1 [Example 1278, N-((6-(3-(Difluoromethyl)-5,6-dihydro-[1,2,4]triazolo[4,3-a]pyrazin-7(8H)-yl)pyridin-3-yl)methyl)-2-methyl-1H-pyrrolo[2,3-b]pyridin-4-amine]	1 to 3	> 40
Nc1nccc2c(NCc3cnc(OCC4CCn5ccnc5C4)nc3)cccc12 (centres unmarked) [Example 1042, 5-N-[(2-{5H,6H,7H,8H-imidazo[1,2-a]pyridin-7-ylmethoxy}pyrimidin-5-yl)methyl]isoquinoline-1,5-diamine]	0.1 to 0.3	> 4
CN1CCC(OCc2ccc(COc3ccc4c(N)nccc4c3)cc2)CC1 [Example 1011, 6-((4-(((1-Methylpiperidin-4-yl)oxy)methyl)benzyl)oxy)isoquinolin-1-amine]	3 to 10	10 to 40
Nc1nccc2c(CCc3ccnc(OCC4CCn5ccnc5C4)c3)cccc12 (centres unmarked) [Example 4452, 5-(2-(2-((5,6,7,8-tetrahydroimidazo[1,2-a]pyridin-7-yl)methoxy)pyridin-4-yl)ethyl)isoquinolin-1-amine]	0.3 to 1	> 40
Nc1nccc2c(NCc3ccc(N4CCn5nccc5C4CO)nc3)cccc12 (centres unmarked) [Example 1268, (5-(5-(((1-aminoisoquinolin-5-yl)amino)methyl)pyridin-2-yl)-4,5,6,7-tetrahydropyrazolo[1,5-a]pyrazin-4-yl)methanol]	3 to 10	> 40
Nc1nccc2c(N3CCCC3c3ccc(N4CCn5c(nnc5C(F)F)C4)nc3)cccc12 (centres unmarked) [Example 10001, 5-(2-(6-(3-(difluoromethyl)-5,6-dihydro-[1,2,4]triazolo[4,3-a]pyrazin-7(8H)-yl)pyridin-3-yl)pyrrolidin-1-yl)isoquinolin-1-amine]	1 to 3	> 40
CN1CCC(CNc2ccc(CNc3ccc4cncc(Cl)c4c3)cn2)CC1 [Example 1188, 4-chloro-N-((6-(((1-methylpiperidin-4-yl)methyl)amino)pyridin-3-yl)methyl)isoquinolin-6-amine]	40 to 100	> 100
CN1CCC(COc2cc(CNc3ccc4cnccc4c3F)ccn2)CC1 [Example 4466, 5-fluoro-N-((2-((1-methylpiperidin-4-yl)methoxy)pyridin-4-yl)methyl)isoquinolin-6-amine]	3 to 10	> 100
